Measurements: paper PMC11284088, “Synthesis and biochemical characterization of naphthoquinone derivatives targeting bacterial histidine kinases” (The Journal of Antibiotics, 2024)
Entries after “also recorded” stand apart in the source; their conditions may differ. Where two headings read alike, the source gives them in different places.

Columns and labels:
WalK [1] = target: T1, WalK (Bacillus subtilis, UniProt Q45614); assay: Inhibition of WalK autophosphorylation; assay type: biochemical; design: key to WalK: WalK + inhibitory effect against WalK; details: for IC50: against WalK from B. subtilis, autophosphorylation, N.I. = no inhibition, read-out: IC50
T1 construct: His6 (N); made in house; host or cells: E. coli BL21(DE3)
T1 sequence (Q45614 207-611): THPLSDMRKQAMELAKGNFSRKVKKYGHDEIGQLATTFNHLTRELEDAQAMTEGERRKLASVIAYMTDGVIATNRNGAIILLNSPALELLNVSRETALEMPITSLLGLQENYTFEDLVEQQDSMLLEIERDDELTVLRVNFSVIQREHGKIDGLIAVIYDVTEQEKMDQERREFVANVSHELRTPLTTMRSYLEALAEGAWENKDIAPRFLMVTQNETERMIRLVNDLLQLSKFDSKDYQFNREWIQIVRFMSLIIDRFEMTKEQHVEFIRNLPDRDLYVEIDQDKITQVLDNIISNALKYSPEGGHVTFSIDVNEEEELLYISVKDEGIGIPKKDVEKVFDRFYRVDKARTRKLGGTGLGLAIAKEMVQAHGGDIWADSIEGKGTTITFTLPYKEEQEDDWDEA
Description: (§1) Autophosphorylation of WalK was conducted at 0.5 or 1 µM in a reaction mixture comprising 50 mM Tris-HCl (pH 8.5), 100 mM KCl, 5 mM MgCl2, 100 mM NH4Cl, 5% DMSO, and 40 µM ATP. The total reaction volume was 40 µl, and the incubation lasted for 30 min at 25 °C. To terminate the reaction, 40 µl of 2 × SDS-PAGE sample buffer was added, followed by a 10-min incubation at 37 °C. Subsequently, SDS-PAGE (10% acrylamide) was performed, and the samples were subjected to Western blotting using a PVDF membrane (Bio-Rad 1620177). The primary antibody used was anti-N3-phosphohistidine antibody (clone SC56-2) (EDM Millipore Corp), and the secondary antibody was goat anti-rabbit IgG-HRP (Abcam). A 2% bovine serum albumin (Sigma-Aldrich) solution served as the blocking reagent. Signals originating from phosphorylated HKs were detected using the HRP substrate (Immobilon Western Chemiluminescent HRP substrate, Millipore) and the Multi Imager II Multi Box (Bio Tools). Signal intensities were quantified with Image Analysis Software CS Analyzer 4 (ATTO). IC50 values (50% inhibitory concentrations) were determined using Prism 7 software (GraphPad).
(§2) In the assessment of naphthoquinone derivatives, the initial screening for inhibitory activity against WalK autophosphorylation was conducted at 50 or 100 µg ml^−1. Compounds displaying inhibitory activity were further examined to ascertain their IC50 values against WalK. For the chosen compounds, inhibition against EvgS, EnvZ, PhoQ, and CpxA HKs was also assessed. These reactions involved the use of 1 µM HK, 40 µM ATP, and a 30 min incubation at 25 °C.

B. subtilis 168 strain [2] = assay: MIC, standard microtiter broth dilution; assay type: cell-based, Bacillus subtilis; design: key to MIC: MIC + antibacterial activity against Bacillus subtilis 168
Description: The minimum inhibitory concentrations (MICs) were determined using the standard microtiter broth dilution method, as recommended by the guidelines of the Clinical Laboratory Standards Institute.

EvgS (559–1197) D1009A = target: T2, EvgS (559–1197) D1009A (Escherichia coli, UniProt P30855, D1009A); assay: Inhibition of EvgS autophosphorylation; assay type: biochemical, Escherichia coli K12
T2 construct: EvgS (559–1197) D1009A; His6 (C); made in house; host or cells: E. coli BL21(DE3)
T2 sequence (P30855 559-1197 D1009A): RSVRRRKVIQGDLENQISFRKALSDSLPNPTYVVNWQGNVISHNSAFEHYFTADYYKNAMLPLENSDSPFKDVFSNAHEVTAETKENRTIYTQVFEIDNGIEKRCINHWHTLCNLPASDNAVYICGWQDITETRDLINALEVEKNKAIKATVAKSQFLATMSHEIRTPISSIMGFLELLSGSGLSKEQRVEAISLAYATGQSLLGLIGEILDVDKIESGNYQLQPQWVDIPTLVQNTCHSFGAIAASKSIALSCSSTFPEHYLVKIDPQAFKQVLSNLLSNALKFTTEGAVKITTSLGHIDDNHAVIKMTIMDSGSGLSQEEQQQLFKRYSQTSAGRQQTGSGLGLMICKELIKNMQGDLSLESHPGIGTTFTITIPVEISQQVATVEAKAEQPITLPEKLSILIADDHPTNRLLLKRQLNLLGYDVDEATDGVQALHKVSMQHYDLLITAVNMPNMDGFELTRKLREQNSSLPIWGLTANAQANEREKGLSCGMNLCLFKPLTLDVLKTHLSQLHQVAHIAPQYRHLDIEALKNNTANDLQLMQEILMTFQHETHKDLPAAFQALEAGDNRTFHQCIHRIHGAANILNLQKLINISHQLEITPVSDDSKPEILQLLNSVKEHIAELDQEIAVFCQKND
Description: as §1, §2

EnvZ = target: T3, EnvZ (Escherichia coli, UniProt P0AEJ4); assay: Inhibition of EnvZ autophosphorylation; assay type: biochemical, Escherichia coli K12
T3 construct: pETEcEnvZ(223-450); His6 (C); made in house; host or cells: E. coli BL21(DE3)
T3 sequence (P0AEJ4 223-450): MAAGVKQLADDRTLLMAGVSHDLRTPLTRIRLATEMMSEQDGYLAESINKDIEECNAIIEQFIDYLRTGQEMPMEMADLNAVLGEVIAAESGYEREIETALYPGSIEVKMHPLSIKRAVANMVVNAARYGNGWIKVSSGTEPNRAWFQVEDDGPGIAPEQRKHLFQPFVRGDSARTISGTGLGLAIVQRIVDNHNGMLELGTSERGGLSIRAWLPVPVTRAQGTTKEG
Description: as §1, §2

PhoQ = target: T4, PhoQ (Escherichia coli, UniProt P23837); assay: Inhibition of PhoQ autophosphorylation; assay type: biochemical, Escherichia coli K12
T4 construct: cytoplasmic regions of PhoQ (261-486) and CpxA (188-457); His6 (C); made in house; host or cells: E. coli BL21(DE3)
T4 sequence (P23837 261-486): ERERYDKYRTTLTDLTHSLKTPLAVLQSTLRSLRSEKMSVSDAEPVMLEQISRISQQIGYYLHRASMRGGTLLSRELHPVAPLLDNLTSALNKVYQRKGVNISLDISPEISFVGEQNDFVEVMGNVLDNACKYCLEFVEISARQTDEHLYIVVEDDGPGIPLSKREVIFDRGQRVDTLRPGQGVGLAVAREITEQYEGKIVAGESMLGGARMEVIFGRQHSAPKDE
Description: as §1, §2

CpxA = target: T5, CpxA (Escherichia coli, UniProt P0AE82); assay: Inhibition of CpxA autophosphorylation; assay type: biochemical, Escherichia coli K12
T5 construct: cytoplasmic regions of PhoQ (261-486) and CpxA (188-457); His6 (C); made in house; host or cells: E. coli BL21(DE3)
T5 sequence (P0AE82 188-457): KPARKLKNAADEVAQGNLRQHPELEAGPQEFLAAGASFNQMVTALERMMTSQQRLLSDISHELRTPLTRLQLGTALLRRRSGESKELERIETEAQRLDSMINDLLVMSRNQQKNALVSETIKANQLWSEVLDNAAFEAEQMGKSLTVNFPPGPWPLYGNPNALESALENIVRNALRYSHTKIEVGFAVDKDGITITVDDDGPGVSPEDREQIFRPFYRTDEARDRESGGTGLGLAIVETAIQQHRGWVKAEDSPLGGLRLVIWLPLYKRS
Description: as §1, with “The” for “Autophosphorylation of WalK was conducted at 0.5 or 1 µM in a reaction mixture comprising 50 mM Tris-HCl (pH 8.5), 100 mM KCl, 5 mM MgCl2, 100 mM NH4Cl, 5% DMSO, and 40 µM ATP. The”
as §2, with “These reactions involved the use of 1 µM HK, 40 µM ATP, and a 30 min incubation at 25 °C.” left out

[3] = target: T6, WalK (207-611, B. subtilis) (Bacillus subtilis, UniProt Q45614); assay: Affinity selection/mass spectrometry, competition with waldiomycin; assay type: binding; design: key to AS/MS: AS/MS + competitive inhibition of the binding of waldiomycin to WalK; − increased binding of waldiomycin to WalK
T6 construct: His6 (N); made in house; host or cells: E. coli BL21(DE3)
T6 sequence (Q45614 207-611): as the sequence (Q45614 207-611) above
Description: The affinity selection/mass spectrometry (AS/MS) is a method which can detect the binding of small compounds to proteins. This experiment was carried out following a previously established protocol (Fig. 5), with the exception of using Millipore 96-well filter plates (MSBVN1210) instead of MAHAN4510. In the experiment, 1 µM of WalK (207-611, B. subtilis, refer to Table S2) was combined and incubated with 5 µM of waldiomycin and competitor compounds in a reaction buffer. The buffer composition was as follows: 25 mM Tris-HCl (pH 8.0), 50 mM KCl, 50 mM NH4Cl, 5 mM MgCl2, 1 mM DTT, and 0.1% CHAPS. Following the incubation, the mixture was subjected to size-exclusion chromatography via centrifugation to eliminate free compounds. The protein that was eluted was then denatured by adding an equal volume of methanol/0.1% formic acid. The compounds that were subsequently released from the protein were detected using an LC/MS system. The concentrations of waldiomycin were calculated from the value of peak areas using calibration curve that covered the range of 1 nM to 1 µM (R^2 = 0.9991). The concentration of waldiomycin in the eluate of WalK and waldiomycin without competitor was 10.1 nM, and percentages to this value were calculated for other samples.

WalK [4] = target: T1, WalK; design: key: WalK + inhibitory effect against WalK; details: summary class; cited from earlier work
B. subtilis 168 strain [5] = tested on: B. subtilis 168 strain; design: method as in PMID 27999439, PMID 28674376, PMID 26582287; key: MIC + antibacterial activity against Bacillus subtilis 168; details: Bacillus subtilis 168, cited from earlier work
iseA (formerly yoeB) [6] = tested on: iseA (formerly yoeB); design: method as in PMID 27999439, PMID 28674376, PMID 26582287; key: RT-qPCR + iseA gene expression was induced in B. subtilis 168; − no effect; details: summary class, iseA gene expression; cited from earlier work
[7] = tested on: HKs (EvgS, EnvZ, PhoQ, and CpxA); design: key: HKs + inhibitory effect against HKs (EvgS, EnvZ, PhoQ, and CpxA); details: summary class; cited from earlier work
class I HKs = tested on: class I HKs; design: method as in PMID 27999439; details: including WalK, PhoQ, EnvZ, and CpxA; cited from earlier work
iseA (formerly yoeB) [8] = assay: RT-qPCR of iseA expression in B. subtilis cells; assay type: cell-based, B. subtilis 168; design: key to RT-qPCR: RT-qPCR + iseA gene expression was induced in B. subtilis 168; − no effect
Description: In brief, the cells were aerated and grown to an optical density at 660 nm of 0.3–0.4 at 37 °C. After the addition of DMSO or naphthoquinone derivatives, the cultures were further incubated for 5 min, cooled on ice for 1 min, and then harvested by centrifugation (2300 × g, 10 min, 4 °C). The cells were resuspended in 800 µl of RNA Lysis Buffer (SV Total RNA Isolation System, Z3100, Promega), transferred to a screw-capped tube containing 400 mg of glass beads (GB-01, TOMY), and disrupted using MicroSmash (MS-100, TOMY Medico) at 3000 rpm, 60 s ON/OFF for 6 cycles. RNA was then purified from 175 µl of the supernatant using the SV Total RNA Isolation System, followed by DNase I treatment (Turbo DNA-free^TM Kit, AM1907, Invitrogen) to remove any residual genomic DNA contamination. […] The expression levels of the genes were normalized using the 16S rRNA gene as an internal standard. Each assay was performed at least three times. Statistical analyses were conducted using Tukey’s multiple comparison test (GraphPad Prism 7).

[9] = tested on: HKs (EvgS, EnvZ, PhoQ, and CpxA); assay: Inhibition of class I HKs, summary over several HKs; assay type: biochemical, Escherichia coli K12; design: key to HKs: HKs + inhibitory effect against HKs (EvgS, EnvZ, PhoQ, and CpxA)
Description: as §1, §2

[10] = Bacillus subtilis, B. subtilis 168 strain grown in LB broth at 37 °C for 18 h, read-out: MIC

**Q.** What does the source list for `C[C@@H]1O[C@](C)(C(=O)O)OC1/C=C/C=C/C=C/C(=O)O[C@H]1CC[C@H](c2ccc3c(c2O)C(=O)c2ccc4c(c2C3=O)C(=O)[C@@H](O)[C@](C)(O)C4)O[C@@H]1C` (stereo partly shown) [Waldiomycin, reference compound]?
**A.** IC50 (WalK [1]): 13.1 µM; MIC (B. subtilis 168 strain [2]; [10]): 8 µg/mL; IC50 (EvgS (559–1197) D1009A): 66.8 µM; IC50 (EnvZ): 33.1 µM; IC50 (PhoQ): 10.9 µM; IC50 (CpxA): 93.9 µM; concentration of waldiomycin in the eluate of WalK and waldiomycin ([3]; without competitor, WalK 1 µM, waldiomycin 5 µM): 10.1 nM; WalK (WalK [4]): +; MIC (B. subtilis 168 strain [5]): 8 µg/mL; MIC (B. subtilis 168 strain [5]; summary class): +; RT-qPCR (iseA (formerly yoeB) [6]): +; HKs [7]: +; inhibition of class I HKs (class I HKs): inhibited 13 class I HKs

**Q.** With `Nc1cccc2c1C(=O)C(Cl)=C(Nc1ccc(O)c(C(=O)O)c1)C2=O` [2o, 5-((5-amino-3-chloro-1,4-dioxo-1,4-dihydronaphthalen-2-yl)amino)-2-hydroxybenzoic acid] as the compound, how does the IC50 (WalK [1]) read?
**A.** Its IC50 is 25.9 µM.

**Q.** What about the “inhibitory activity against WalK” value (WalK [1]; in words) of the same compound?
**A.** The value was “weaker”.

**Q.** And the WalK (WalK [1]; summary class)?
**A.** The WalK was “+”.

**Q.** What about the MIC (B. subtilis 168 strain [2]; [10]) of the same compound?
**A.** The MIC was 16 µg/mL.

**Q.** What about the “antibacterial (antimicrobial) activity against B. subtilis” value (B. subtilis 168 strain [2]; in words) of the same compound?
**A.** The value was “weaker”.

**Q.** What about the MIC (B. subtilis 168 strain [2]; summary class, Bacillus subtilis 168) of the same compound?
**A.** The MIC was “+”.

**Q.** And the IC50 (EvgS (559–1197) D1009A)?
**A.** Its IC50 is 0.2 µM.

**Q.** What about the IC50 (EnvZ) of the same compound?
**A.** The IC50 was 1.3 µM.

**Q.** What about the IC50 (PhoQ) of the same compound?
**A.** The IC50 was 0.1 µM.

**Q.** And the IC50 (CpxA)?
**A.** Its IC50 is 0.8 µM.

**Q.** And the “expression of iseA” value (iseA (formerly yoeB) [8]; exponentially growing cells, subMIC or MIC levels, 5 min, relative to DMSO control)?
**A.** Its value is “did not change”.

**Q.** And the RT-qPCR (iseA (formerly yoeB) [8]; summary class, iseA gene expression in B. subtilis 168)?
**A.** The RT-qPCR was “−”.

**Q.** And the “effect on the signal of waldiomycin” value ([3]; compound 30 and 100 µM, in words)?
**A.** The value was “reduced the signal of waldiomycin in a dose-dependent manner”.

**Q.** What about the “signal of waldiomycin compared to only waldiomycin with WalK” value ([3]; compound at 100 µM, waldiomycin 5 µM, WalK 1 µM) of the same compound?
**A.** The value was “about 10%”.

**Q.** What about the “binding to WalK competitive with that of waldiomycin” value ([3]; in words) of the same compound?
**A.** Its value is “competitive; also recorded: competitively interacted with waldiomycin”.

**Q.** What about the AS/MS ([3]; summary class, effect on binding of waldiomycin to WalK) of the same compound?
**A.** The AS/MS was “+”.

**Q.** What about the “inhibition of EvgS, EnvZ, PhoQ, and CpxA” value ([9]; in words) of the same compound?
**A.** The value was “inhibited all four of these HKs”.

**Q.** And the HKs ([9]; summary class, EvgS, EnvZ, PhoQ, and CpxA)?
**A.** Its HKs is “+”.
